{"source": "ChEMBL document CHEMBL1201862", "about": "“PubChem BioAssay data set” (2004)", "key": {"[1]": {"assay": "HepG2 cell cytotoxicity, dose response, cytotoxicity control, ATP luminescence, cherry-pick, set 6 (AID 1053125)", "format": "functional, cell-based"}, "cells [2]": {"assay": "cells", "conditions": "HEK293"}, "cells [3]": {"assay": "cells", "conditions": "A549"}, "[4]": {"assay": "A Cell-Based Confirmatory Screen for Compounds that Inhibit VEEV, TC-83 (8).", "format": "functional"}, "[5]": {"assay": "A Cell-Based Confirmatory Screen for Compounds that Inhibit VEEV TC-83 (4).", "format": "functional"}, "[6]": {"assay": "A Cell-Based Confirmatory Screen for Compounds that Inhibit VEEV, TC-83 (5).", "format": "functional"}, "[7]": {"target": "Metabotropic glutamate receptor 3 (Rattus norvegicus, UniProt P31422)", "sequence (P31422 whole entry)": "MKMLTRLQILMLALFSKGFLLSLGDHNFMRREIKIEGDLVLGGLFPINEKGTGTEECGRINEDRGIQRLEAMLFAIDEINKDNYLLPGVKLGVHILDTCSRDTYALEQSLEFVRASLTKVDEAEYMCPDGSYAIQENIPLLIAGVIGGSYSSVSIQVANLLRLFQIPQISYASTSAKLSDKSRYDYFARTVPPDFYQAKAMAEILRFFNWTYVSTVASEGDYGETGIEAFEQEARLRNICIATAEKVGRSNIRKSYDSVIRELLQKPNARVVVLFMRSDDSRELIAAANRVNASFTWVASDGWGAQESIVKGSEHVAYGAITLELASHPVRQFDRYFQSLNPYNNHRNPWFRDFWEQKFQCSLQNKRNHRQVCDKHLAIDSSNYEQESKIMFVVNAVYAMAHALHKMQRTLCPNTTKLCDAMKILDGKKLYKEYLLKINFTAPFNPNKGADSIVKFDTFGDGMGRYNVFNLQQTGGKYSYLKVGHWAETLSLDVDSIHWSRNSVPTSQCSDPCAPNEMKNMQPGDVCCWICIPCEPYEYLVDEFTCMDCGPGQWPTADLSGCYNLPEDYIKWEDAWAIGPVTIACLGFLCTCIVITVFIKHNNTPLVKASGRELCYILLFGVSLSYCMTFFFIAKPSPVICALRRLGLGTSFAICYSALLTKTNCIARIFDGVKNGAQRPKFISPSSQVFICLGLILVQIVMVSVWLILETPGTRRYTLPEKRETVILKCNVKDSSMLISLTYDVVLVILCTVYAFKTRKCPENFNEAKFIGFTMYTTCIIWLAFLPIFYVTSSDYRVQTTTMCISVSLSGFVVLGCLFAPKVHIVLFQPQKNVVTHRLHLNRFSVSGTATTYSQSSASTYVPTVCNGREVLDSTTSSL", "assay": "mGlu3 negative allosteric modulator potency, dose response, HEK/GIRK cells, thallium flux, rat (AID 651839)", "format": "functional"}, "[8]": {"target": "T1, Oxysterols receptor LXR-beta (Homo sapiens, UniProt P55055)", "T1 sequence (P55055 whole entry)": "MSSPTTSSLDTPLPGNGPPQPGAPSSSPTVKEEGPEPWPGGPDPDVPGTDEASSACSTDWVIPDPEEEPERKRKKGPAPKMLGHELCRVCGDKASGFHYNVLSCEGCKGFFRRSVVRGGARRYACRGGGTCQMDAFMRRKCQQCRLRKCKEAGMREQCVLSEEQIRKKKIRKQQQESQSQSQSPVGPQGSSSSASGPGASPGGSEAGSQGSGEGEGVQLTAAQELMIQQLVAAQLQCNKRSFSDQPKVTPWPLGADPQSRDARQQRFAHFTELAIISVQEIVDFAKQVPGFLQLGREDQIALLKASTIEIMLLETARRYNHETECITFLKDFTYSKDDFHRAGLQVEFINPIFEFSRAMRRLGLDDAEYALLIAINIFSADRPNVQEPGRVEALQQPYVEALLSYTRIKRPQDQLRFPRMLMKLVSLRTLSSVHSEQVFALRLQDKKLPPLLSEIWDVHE", "format": "functional, cell-based"}, "[9]": {"assay": "P. falciparum Dd2 growth inhibitors, dose response, SYBR Green, dry powder samples, set 4 (AID 1159572)", "format": "functional, cell-based"}, "[10]": {"assay": "P. falciparum 3D7-ScDHODH growth inhibitors, dose response, SYBR Green, dry powder samples (AID 1159570);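 also: parasite growth measured after 72 hours of compound exposure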", "format": "functional, cell-based"}, "[11]": {"assay": "HepG2 cell cytotoxicity, dose response, cytotoxicity control, plate reader, dry powder samples (AID 1159569);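 also: inhibitor potency with signal falling toward the positive control level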", "format": "functional, cell-based"}, "[12]": {"assay": "P. falciparum Dd2 growth inhibitors, dose response, SYBR Green, dry powder samples (AID 1159566);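 also: potency for growth inhibition with lower SYBR green DNA signal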", "format": "functional, cell-based"}, "[13]": {"assay": "P. falciparum ATP4 D1247Y mutant growth inhibitors, dose response, NITD609-resistant line, SYBR Green, dry powder (AID 1159571);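 also: parasites synchronized at ring stage by sorbitol before testing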", "format": "functional, cell-based"}, "[14]": {"assay": "P. falciparum Dd2 growth inhibitors, dose response, SYBR Green, cherry-picked samples (AID 1159567)", "format": "functional, cell-based"}, "[15]": {"assay": "HepG2 cell cytotoxicity, dose response, cytotoxicity control, cherry-picked samples (AID 1159577)", "format": "functional, cell-based"}, "[16]": {"assay": "HepG2 cell cytotoxicity, dose response, cytotoxicity control, plate reader, dry powder, set 6 (AID 743311)", "format": "functional, cell-based"}, "[17]": {"assay": "A549 cell cytotoxicity, dose response, cytotoxicity control, plate reader, dry powder, set 6 (AID 743312)", "format": "functional, cell-based"}, "cells [18]": {"assay": "cells", "conditions": "HEK293", "remark": "listed apart in the source"}, "[19]": {"assay": "RKO cell viability reduction, dose response, CellTiter-Glo luminescence (AID 1117322)", "format": "functional"}, "[20]": {"assay": "Concentration-dependent survival of SW480 colon cancer line, luminescence detection with CellTiter-Glo, half-maximal inhibitory concentration (AID 1117338)", "format": "functional"}, "[21]": {"assay": "cytotoxicity toward Colo320 cells – cell-based, CellTiter-Glo luminescence, IC50, dose response (AID 1117334)", "format": "functional", "conditions": "COLO 320"}, "[22]": {"assay": "HeLa 2N DNA content increase, dose response, cell-based, IC50 (AID 1117349)", "format": "functional"}, "[23]": {"assay": "CellTiter-Glo luminescent dose response of DLD-1 viability loss (AID 1117352)", "format": "functional"}, "[24]": {"assay": "SNU-C1 cell viability reduction, dose response, CellTiter-Glo luminescence (AID 1117323)", "format": "functional, cell-based"}, "[25]": {"assay": "cytotoxicity toward HCT116 cells – cell-based, CellTiter-Glo luminescence, IC50, dose response (AID 1117332)", "format": "functional", "conditions": "HCT-116"}, "[26]": {"assay": "HeLa 4N DNA content increase, dose response, cell-based, IC50 (AID 1117351)", "format": "functional"}, "[27]": {"assay": "cytotoxicity toward HT-29 cells – cell-based, CellTiter-Glo luminescence, IC50, dose response (AID 1117330)", "format": "functional"}}, "note": "Activity calls are given as the source filed them.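 For EC50 in this document: agonist activity at LXR measured by a cell-based luminescence readout across a dose range, run as a counterscreen for daf-12 agonists; HEK293 cells with Gal4-LXR fusion and GAL4-driven luciferase reporter; potency for activation of Gal4-LXR reporter so compounds are agonists.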"}
{"smiles": "O=c1oc2cc(O)ccc2cc1-c1nc2ccccc2o1", "values": [{"measurement": "AC50", "setting": "[1]", "value": "> 52 µM (inactive)"}, {"measurement": "AC50", "setting": "cells [2]", "value": "26.6 µM (active)"}, {"measurement": "AC50", "setting": "cells [3]", "value": "> 52 µM (inactive)"}]}
{"smiles": "O=c1c2cc([N+](=O)[O-])ccc2nc(CN2CCNCC2)n1-c1ccccc1F", "values": [{"measurement": "IC50", "setting": "[4]", "value": "< 198 nM (active)"}, {"measurement": "IC50", "setting": "[5]", "value": "73 nM (active)"}, {"measurement": "IC50", "setting": "[6]", "value": "< 230 nM (active)"}]}
{"smiles": "COc1ccc(OC)c(-c2ccc3cc(C(=O)N4CCCC(CO)C4)ccc3c2)c1", "note": "(stereo not drawn)", "values": [{"measurement": "IC50", "setting": "[7]", "value": "9.16 µM (active)"}]}
{"smiles": "Nc1ncc(Br)cc1/N=C/c1ccccc1", "values": [{"measurement": "EC50", "setting": "[8]", "value": "> 67.5 µM (inactive)"}]}
{"smiles": "CCCNC(=O)N1CCC2(CC1)CN(C(C)=O)[C@@H](CO)c1[nH]c3cc(OC)ccc3c12", "values": [{"measurement": "AC50", "setting": "[9]", "value": "9.51 µM (active)"}]}
{"smiles": "COc1ccc(C#Cc2ccc3c(c2)[C@@H]2[C@@H](CCN2C(=O)C2CCCC2)[C@@H](CO)N3)cc1", "values": [{"measurement": "AC50", "setting": "[10]", "value": "1.31 µM (active)"}, {"measurement": "AC50", "setting": "[11]", "value": "> 100 µM (inactive)"}, {"measurement": "AC50", "setting": "[12]", "value": "1.09 µM (active)"}, {"measurement": "AC50", "setting": "[13]", "value": "1.1 µM (active)"}, {"measurement": "AC50", "setting": "[14]", "value": "2.82 µM (active)"}]}
{"smiles": "Cc1cccc(S(=O)(=O)N2CCCCN3[C@@H](CO)[C@@H](c4ccc(C#CC5CC5)cc4)[C@@H]3C2)c1", "values": [{"measurement": "AC50", "setting": "[15]", "value": "14.4 µM (active)"}, {"measurement": "AC50", "setting": "[14]", "value": "1.3 µM (active)"}]}
{"smiles": "CC(C)c1ccccc1OCCn1c(=S)[nH]c2ccccc21", "values": [{"measurement": "AC50", "setting": "[16]", "value": "32.9 µM (active)"}, {"measurement": "AC50", "setting": "[17]", "value": "21.1 µM (active)"}, {"measurement": "AC50", "setting": "cells [18]", "value": "27.6 µM (active)"}]}
{"smiles": "O=c1c(-c2ccccc2)c1-c1ccccc1", "note": "[DIPHENCYPRONE]", "values": [{"measurement": "IC50", "setting": "[19]", "value": "> 20 µM (inactive)"}, {"measurement": "IC50", "setting": "[20]", "value": "> 20 µM (inactive)"}, {"measurement": "IC50", "setting": "[21]", "value": "3.1 µM (active)"}, {"measurement": "IC50", "setting": "[22]", "value": "> 10 µM (inactive)"}, {"measurement": "IC50", "setting": "[23]", "value": "4.21 µM (active)"}, {"measurement": "IC50", "setting": "[24]", "value": "> 20 µM (inactive)"}, {"measurement": "IC50", "setting": "[25]", "value": "> 20 µM (inactive)"}, {"measurement": "IC50", "setting": "[26]", "value": "> 10 µM (inactive)"}, {"measurement": "IC50", "setting": "[27]", "value": "> 20 µM (inactive)"}]}
